These results are taken from PubChem BioAssay AID504565 (NMMLSC, 2011).

Broadly, the EC50 is the concentration that produces a half-maximal response. The low end stands for higher potency in that assay, the high end for lower potency in that assay.

This assay has as its system Mouse 2C CD8+ T cell-vesicle binding, flow cytometry. Briefly: modulators of CD8 T cell-vesicle binding, dose response, powder samples, mouse 2C CD8+ cells (AID 504565).
[1] abbreviates: CD8+ 90th percentile fluorescence.
Setting [2] is: double positive events percentage.

On to `O=C(O)C1CCC(Cn2c(SCc3cc(=O)n4cc(Cl)ccc4n3)nc3ccsc3c2=O)CC1` (stereo unspecified), for which the EC50 is, setting by setting: under setting [1], 34.8 µM; under setting [2], 33.7 µM.
Regarding `CCOc1ccc(-c2nc(N)ncc2-c2ccccc2)c(O)c1`, the EC50 under setting [1] came to 0.239 µM.
For the molecule `O=C(NCC1CCCCC1)c1ccc(Cl)c(S(=O)(=O)N2CCOCC2)c1`, the EC50 is, setting by setting: under setting [1], 21.4 µM; under setting [2], 17.1 µM.
On the same counts, the results for `O=C(c1ccc(N2C(=O)C3CC=C(Cl)CC3C2=O)cc1)N1CCCCC1` (stereo unspecified) are 34.9 µM and 39.8 µM.
For `COc1ccc(S(=O)(=O)N2CCCC2C(=O)Nc2ccc(C(C)=O)cc2)cc1` (stereo unspecified) the same measures were 20.7 µM and 20.2 µM.
As for `COCc1c(C(=O)Nc2cccc(S(=O)(=O)N3CCCCC3)c2)oc2ccccc12`, the EC50 runs as follows: under setting [1], 6.43 µM; under setting [2], 7.96 µM.
`CCOC(=O)C1CCCN(S(=O)(=O)c2ccc(F)c(C(=O)Nc3ccc(F)c(F)c3)c2)C1` (stereo unspecified) had an EC50 under setting [1] of 37.7 µM and an EC50 under setting [2] of 34.4 µM.
For `Cc1ccccc1C(=O)N1CCC(C(=O)Nc2ccc(C)c(S(=O)(=O)N3CCCCC3)c2)CC1` the same measures were 17 µM and 16.3 µM.
Take `O=C(COC(=O)C12CC3CC(CC(Br)(C3)C1)C2)Nc1cccc(S(=O)(=O)N2CCOCC2)c1`: the EC50 was 8.26 µM under setting [1] and 3.22 µM under setting [2].
On to `CCN(CC)S(=O)(=O)c1ccc(Cl)c(NC(=O)COC(=O)C2CCCCC2)c1`, for which the EC50 by setting is: under setting [1], 38.8 µM; under setting [2], 37.6 µM.
With `CCOC(=O)c1ccc(S(=O)(=O)N2CCN(C3CCCC3)CC2)cc1`, the EC50 came out at 14 µM under setting [1] and 10.4 µM under setting [2].
For the molecule `Cc1cc(Cl)c(OCCCSc2nc(C)cc(=O)[nH]2)c(Br)c1`, the EC50 under setting [1] is 22.6 µM.
`CCOCC(=O)Nc1ccc(S(=O)(=O)N2CCC(c3nc4ccccc4[nH]3)CC2)cc1`: the EC50 by setting is: under setting [1], 0.6 µM; under setting [2], 0.63 µM.
For `CN(CC(=O)Nc1cc(S(=O)(=O)N2CCCC2)ccc1Cl)Cc1ccc2c(c1)OCO2` the same measures were 8 µM and 9.84 µM.
